Entries after “also recorded” stand apart in the source; their conditions may differ.
What was measured:
[1] = biological target: T1, METTL16 MTD–GGACU-containing RNA interaction (Homo sapiens, UniProt Q86W50); assay: EMSA with GGACU-containing RNA; conditions: 5 nM RNA, 600 nM METTL16 MTD
T1 sequence (Q86W50 1-291): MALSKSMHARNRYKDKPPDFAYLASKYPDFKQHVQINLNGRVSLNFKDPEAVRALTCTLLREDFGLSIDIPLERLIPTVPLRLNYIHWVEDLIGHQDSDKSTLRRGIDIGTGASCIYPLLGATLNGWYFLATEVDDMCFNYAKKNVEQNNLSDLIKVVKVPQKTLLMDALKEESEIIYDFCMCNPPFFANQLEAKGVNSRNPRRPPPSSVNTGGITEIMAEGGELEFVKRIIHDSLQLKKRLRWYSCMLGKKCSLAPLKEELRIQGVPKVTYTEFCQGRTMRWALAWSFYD
Procedure: METTL16 MTD protein (1–291) was incubated with the indicated compound or DMSO in a buffer containing 20 mM HEPES, pH 7.5, 50 mM NaCl, 0.05% v/v Tween 20, and 0.05 mg/mL BGG at room temperature for 30 min; subsequently, FAM-MAT2A-hp1 RNA probe was added and incubated at room temperature for 10 min, the final of protein and RNA are 50 and 5 nM respectively, and 1% DMSO was used as the control. […] The gel was detected and imaged by Chemi Doc MP (Bio-Rad). […] EMSA for testing compounds with GGAUC-motif containing RNA and METTL16 MTD interaction was performed using the method described above, expecting that the final of METTL16 MTD protein and FAM-labeled-GGACU RNA are 600 nM and 5 nM respectively. EMSA for RNA binding: indicated concentrations of fluorophore-labeled RNA were incubated with indicated concentrations of protein in EMSA buffer for 15 min at room temperature, then loaded to native PAGE gels and imaged with the method described above.

[2] = biological target: T2, methyltransferase activity of METTL16 MTD toward MAT2A-hp1 (Homo sapiens, UniProt Q86W50); assay: In vitro methylation assay (MTase Glo); assay type: biochemical; conditions: for inhibition of the methyltransferase activity of METTL16 MTD, in words: RNA substrate MAT2A-hp1
T2 construct: METTL16 MTD (1–291) was subcloned to pOPINB plasmid; His tag followed by HRV 3C cleavage site (N, cleaved yes); made in house; host or cells: E. coli Rosetta (DE3)
T2 sequence (Q86W50 1-291): T1 sequence (Q86W50 1-291)
Procedure: Next, we evaluated the inhibition of the METTL16 methylation using the MTase Glo assay kit (Promega) measuring the methyltransferase activity based on the formation of the methylation product S-adenosyl homocysteine, which was converted to ADP by the MTase-Glo reagent to trigger a subsequent luciferase reaction (Figure 5E).
The methyltransferase activity of METTL16 MTD was measured using an MTase Glo kit (Promega V7601) following the manufacturer’s instructions. The reaction was carried out in white 384-well plates (Corning #3824), with a total methyltransferase reaction volume of 8 μL, and the final concentrations of METTL16 MTD, MAT2A-hp1, and SAM were 1, 1, and 10 μM, respectively, and 1% of DMSO was used as a control. […] To use SAM at a different final concentration, the concentration of SAM was adjusted accordingly in a 2× substrate solution.

[3] = system: MAT2A mRNA splicing in A549 cells; assay: MAT2A splicing by RT-qPCR, A549; assay type: cell-based, human; conditions: 50 μM, 24 h, 45 potassium salt used
Procedure: (§1) MDA-MB-231 cells and A549 cells were seeded into 6-well plates at 70% confluency and cultured overnight. Afterward they were treated with compound 45 potassium salt for 24 h. After the compound treatment, the cell culture medium was discarded and cells were washed with DPBS three times. The total RNA was then purified using RNeasy Mini Kit (Qiagen 74106) following the manufacturer’s protocol.
The reverse transcription was performed by using High-Capacity cDNA Reverse Transcription Kits (Thermo Fisher 4368814) with 500 ng of total RNA. qPCR was performed using PowerUp SYBR Green Master Mix (Thermo Fisher, A25742) with a 10 μL volume. The cycling was performed using Bio-Rad CFX96 Real-Time PCR Detection System following the standard cycling mode (primer Tm ≥ 60 °C) on the manufacturer’s protocol. The p value was calculated using GraphPad Prism software’s one-way ANOVA analysis.
Figure S10. Cellular evaluation of selected METTL16 inhibitors. (A)Suppression on cell viability in A549 cells.
Data are shown as mean ± SEM, n=3. (B) Suppression on cell viability in HCT116 cells. Data are shown as mean ± SEM, n=3. (C) Spliced MAT2A in A549 cells increased after treated 24 h with indicated dose of 45. Data are shown as mean ± SEM, n=4. **P<0.01, ns P>0.05. (D) Total RNA m 6A level in A549 cells after treated 24 h with 45. 45 potassium salt was used for MAT2A splicing and total RNA m 6A level evaluation. […]

[4] = system: total m^6A level in MDA-MB-231 cells; assay: Total RNA m6A level by dot blot, MDA-MB-231; assay type: cell-based, human; conditions: 50 μM, 24 h, 45 potassium salt used
Procedure: as §1
(§2) Concentrations of the total RNA were measured by NanoDrop and each sample was calibrated to the same concentration using RNase-free water. RNA samples were heated at 95 °C for 3 min and immediately chilled on ice to disrupt the secondary structures. The total RNA (1 μg) was dropped onto a positively charged nylon membrane (Invitrogen, AM10102). The membrane with RNA side up was immediately transferred to the UVP Cross-linker (Analytik Jena) with […] bulb and cross-linked under the UV light for 5 min two times, then the membrane was washed in TBST (1xTBS with 0.1% Tween 20) for 10 min at room temperature and blocked with 5% skimmed milk in TBST for 1 h at room temperature. The membrane was incubated with the anti-m^6A antibody (Synaptic systems 202003, 1 μg/mL) overnight at 4 °C. […] The membrane was further washed with TBST and detected with the Amersham ECL Prime Western Blotting Detection Reagent. […]

[5] = system: total RNA m^6A level in A549 cells; assay: Total RNA m6A level by dot blot, A549; assay type: cell-based, human; conditions: 50 μM, 24 h, 45 potassium salt used
Procedure: as §1, §2

METTL16 MTD (1-291) = biological target: T3, METTL16 MTD (1-291) (Homo sapiens, UniProt Q86W50); assay: Isothermal titration calorimetry (ITC); assay type: binding; conditions: 700 μM METTL16 (1-291) titrated into 50 μM compound, 25 °C
T3 construct: METTL16 MTD (1–291) was subcloned to pOPINB plasmid; His tag followed by HRV 3C cleavage site (N, cleaved yes); made in house; host or cells: E. coli Rosetta (DE3)
T3 sequence (Q86W50 1-291): T1 sequence (Q86W50 1-291)
Procedure: ITC was performed by using the MicroCal PEAQ-ITC system (Malvern) at 25 °C. METTL16 MTD protein was directly used after purification. 700 μM protein in SEC buffer (20 mM pH 7.5, 200 mM NaCl, 0.5 mM TCEP,2% v/v glycerol) supplemented with 0.5% DMSO were loaded to the syringe, 50 μM compound in SEC buffer (final 0.5%DMSO) was loaded to the cell, both samples were adjusted to 25 °C and degassed before loading. The experiment was carried out using the reference power of 10, with 19 injections. Data were analyzed using the MicroCal PEAQ-ITC Analysis Software.
Figure S5. Compound Ia as a negative control for DSF assay ,T m values of tested compounds and ITC result of […]
47. […] Data are shown as mean ± SEM, n=4. (B) EMSA assay result of compound Ia. (C) Melting curve of METTL16 in the DSF assay treated with different concentrations of Ia. Data are shown as mean ± SD, n=2. (D) T m values of DMSO control and compound Ia, 27,45,46, and 47, assay was conducted with two biological repeats in duplicate. Data are shown as mean ± SEM, n=4. (E) ITC validation of compound 47, using 700 μM METTL16 (1-291) protein to titrate 50 μM compound 47.
(1 picture or pasted object on this page, not shown here)

METTL16 MTD = biological target: T4, METTL16 MTD (Homo sapiens, UniProt Q86W50); assay: Michaelis–Menten kinetics study, in vitro methylation assay at different SAM concentrations; assay type: biochemical; conditions: SAM from 75 µM, two-fold dilution
T4 construct: METTL16 MTD (1–291) was subcloned to pOPINB plasmid; His tag followed by HRV 3C cleavage site (N, cleaved yes); made in house; host or cells: E. coli Rosetta (DE3)
T4 sequence (Q86W50 1-291): T1 sequence (Q86W50 1-291)

Compound	inhibition of METTL16–GGACU RNA binding in EMSA, in words [1]	inhibition of the methyltransferase activity of METTL16 MTD, in words [2]	MAT2A splicing, in words [3]	total m^6A RNA level, in words [4]	total m^6A RNA level, in words [5]	inhibition at 50 µM ([2]; at 50 μM, 1 μM METTL16 MTD, 1 μM MAT2A-hp1, 10 μM SAM) [%]	Kd (METTL16 MTD (1-291)) [µM]	inhibition mode with SAM (Michaelis–Menten kinetics) (METTL16 MTD)
CN1C(=O)C(=C2SC(NS(=O)(=O)c3ccc(C(=O)O)cc3)=NC2=O)c2cc(Br)ccc21 [Compound 45]	dose-dependently inhibited	dose-dependently inhibited	promoted MAT2A splicing	increased the total m^6A mRNA levels	increased the total m^6A mRNA levels			
O=C1N=C(NS(=O)(=O)c2ccc(C(=O)O)cc2)SC1=C1C(=O)Nc2ccc(Br)cc21 [Compound 47]	dose-dependently inhibited	dose-dependently inhibited; also recorded: potent inhibitory activity				> 50	5.12	noncompetitive inhibition mode with SAM

From article PMC11040665, “Aminothiazolone Inhibitors Disrupt the Protein–RNA Interaction of METTL16 and Modulate the m^6A RNA Modification” (JACS Au, 2024)
